Data on 17 compounds can be found in patent US20190125735A1, “INHIBITION OF P38 MAPK FOR THE TREATMENT OF CANCER” (Board of Regents, The University of Texas System, priority 2015, published 2019).

Where two headings read alike, the source gives them in different places. Where a SMILES comes first, the peptide text is derived from it. The star is where a group is joined. Cbz = O=C(OCc1ccccc1)*

Experiment [1] relates to BCR-ABL+ mouse ALL cells seeded on MSCs (OP9 cells). In words: Clinical compound library screen, imatinib-pretreated MSC / BCR-ABL+ ALL cell co-culture. Type of experiment: cell-based. As for the experimental part:
The effectiveness of the compounds was determined in preventing cluster formation by microscopy and the toxicity of the compounds by bioluminescence imaging of co-cultured MSCs and leukemic cells.
The clinical compounds library was purchased from the John S. Dunn Gulf Coast Consortium for Chemical Genomics (Houston, Tex.). […] Then, luciferase-labeled BCR-ABL+ mouse ALL cells were seeded on to the MSCs. Treatment was continued for 1 day, and the samples were evaluated via phase-contrast microscopy for the formation of leukemic cell clusters underneath the pretreated MSCs. To determine the compounds' toxicity in MSCs or leukemic cells, we examined the MSC/ALL cell co-cultures via microscopy and/or bioluminescence imaging.
Phase-contrast images of co-cultured MSCs and ALL cells were obtained using an Axio Observer.Z1 microscope, an AxioCam MR camera, and AxioVision software (Zeiss, Oberkochen, Germany). For screening, a cluster was defined as a group of more than five leukemic cells under the MSCs. The total number of leukemic cell clusters was the average number of clusters from three different fields (10× objective). For post-screening experiments, a cluster was defined as a group of more than 10 leukemic cells under the MSCs. The total number of leukemic cell clusters was the average number of clusters from 10 different fields (10× objective).

Experiment [2] concerns HMLER-Snail cells. In words: Sphere formation in ultra-low attachment plates, HMLER-Snail cells. It counts as cell-based. The note with it: Homo sapiens, cultured 7-10 days, spheres >75 μm, read-out: Concentration of the drug that induced 50% reduction in sphere formation. As for the experimental part:
(§1) (A) HMLER-Snail cells were treated with various p38 inhibitors. Cells were seeded in ultra-low attachment plates and cultured for 7-10 days. Spheres with a diameter greater than […] were counted. The data are reported as the number of spheres formed/1000 seeded cells±SEM. […] (B) SUM159 cells were treated with various p38 inhibitors. Cells were seeded in ultra-low attachment plates and cultured for 7-10 days. Spheres with a diameter greater than 75 μm were counted. The data are reported as the number of spheres formed/1000 seeded cells±SEM. […] (C) HMLE-Snail cells were treated with various p38 inhibitors. Cells were seeded in ultra-low attachment plates and cultured for 7-10 days. Spheres with a diameter greater than 75 μm were counted. The data are reported as the number of spheres formed/1000 seeded cells±SEM. […] (D) Western blots of HMLER-Snail cell treatment with various p38 inhibitors on Day 2 of treatment.

The test system of experiment [3] is FOXC2 protein. Kind of experiment: Western blots of FOXC2 protein in HMLER-Snail cells. It counts as cell-based. The note with it: Homo sapiens, 48 h, Day 2 of treatment, read-out: Concentration of the drug that induced 50% reduction in FOXC2 protein. As for the experimental part: as §1
In experiment [4] the test system is SUM159 cells. Kind of experiment: Sphere formation in ultra-low attachment plates, SUM159 cells. It counts as cell-based. The note with it: Homo sapiens, cultured 7-10 days, read-out: Concentration of the drug that induced 50% reduction in sphere formation. As for the experimental part:
as §1

In experiment [5] the test system is HMLE-Snail cells. In words: Sphere formation in ultra-low attachment plates, HMLE-Snail cells. It counts as cell-based, human. The note with it: cultured 7-10 days; for IC50: Homo sapiens, read-out: Concentration of the drug that induced 50% reduction in sphere formation. As for the experimental part: as §1
For experiment [6], the system named is FOXC2. Kind of experiment: FOXC2 protein levels by immunoblotting in mammary cell lines. Type of experiment: cell-based, human. The settings on record: pre-treatment with 10 μM MG132. As for the experimental part: Immortalized human mammary epithelial (HMLE) cells expressing empty vector (pWZL), Snail, Twist, Goosecoid (GSC), or an activated form of TGFβ1, V12H-Ras-transformed HMLE (HMLER) and HMLER-FOXC2 cells were maintained as previously described (Elenbaas et al., 2001) For 4-hydroxy-tamoxifen (4-OHT) treatment, HMLE-Snail-ER or HMLE-Twist-ER cells were exposed to 20 nM 4-OHT for the indicated number of days. MCF7, MDA-MB-231 and SUM159 human breast cancer cells and the 4T1 mouse mammary carcinoma cells were cultured as described. Human non-tumorigenic MCF10A cells were cultured as described (Hollier et al., 2013), and treated with 2.5 ng/ml TGFβ1 for 3 days to elicit EMT.
Immunoblotting and immunofluorescence (Mani et al., 2008) were performed as previously described. Primary antibodies were as follows: β-actin (Sigma, St Louis, Mo., USA; A3853), mouse anti-human FOXC2 (Dr. Naoyuki Miura, Hamamatsu University School of Medicine, Japan), goat polyclonal anti-FOXC2 (Santa Cruz Biotechnology, Dallas, Tex., USA; sc-21397), p-p38 (Cell Signaling, Danvers, Mass., USA; 4511), p38 (Cell Signaling; 9211), E-cadherin (BD Biosciences, San Jose, Calif., USA; 61081), fibronectin (BD Biosciences; 610077), vimentin (Novus Biologicals, Littleton, Colo., USA; NB200-623), ZEB1 (Novus Biologicals; NBP1-05987), and HA (Covance, Princeton, N.J., USA; MMS-101P).

For experiment [7], the system named is LNCaP cells. Kind of experiment: MTS cell survival assay, LNCaP cells over-expressing FOXC2. Type of experiment: cell-based, human. The settings on record: LNCaP cells with FOXC2 expression. The source says:
Since FOXC2 is induced downstream of several different EMT inducers, and is by itself capable of potentiating the effects of multiple independent EMT signals (Taube et al., 2010), it was queried how ectopic expression of FOXC2 would impact the behavior of epithelial-like LNCaP cells, which are androgen-dependent. […] Again, FOXC2-induced EMT was associated with a reduction in PSA-promoter activity (as determined by loss in GFP) (FIG. 3A-lower panel), as well as loss in AR expression (FIGS. 3B,C).
(§2) Immunoblotting, Immunofluorescence, RTPCR, wound healing- and tumorsphere assays were performed as previously described (Sarkar et al., 2015). Cell viability (MTS) was assessed using the CellTiter96 Aqueous One-Solution Cell Proliferation Assay kit (Promega).

In experiment [8] the test system is DU145 cells. The note with it: parental DU145 cells, even at 10 μM; cited from earlier work.
Experiment [9] relates to DU145 cells. In words: DU145 subcutaneous tumors in NOD/SCID mice. Type of experiment: in vivo. The note with it: subcutaneous dosing 5 days/week; SB203580 0.2 μmols per mouse, Enzalutamide 10 mg/kg; vs vehicle.
Method: To investigate the effect of inhibition of FOXC2-dependent EMT/CSC attributes on tumor formation in vivo, NOD/SCID mice were subcutaneously injected with DU145 cells and began treatment in vivo, after formation of palpable tumors.
Immediately after sacrificing the mice, ˜100 μl blood was isolated via venipuncture in EDTA-treated collection tubes and stored on ice. Within 30 minutes, the blood was spun down at 1200 rpm for 5 minutes, and the pellet resuspended in 1 ml ACK-lysing buffer (Life Tech) and further incubated for 3-5 minutes. Cells were washed once with PBS, resuspended in RPMI with 10% FBS and pen/strep, and cultured on 10 cm tissue culture dishes. RFP-positive colonies (originating from the labeled DU145 cells injected into mice) were counted after 3-4 days in culture and quantified.
˜4 week-old male NOD.CB17-Prkdcscid/J mice were purchased from the Jackson Laboratory (Maine, USA). […] Once palpable tumors were discernable, tumor-bearing mice were randomly segregated into 4 groups, and drug treatment was initiated every 24 hours for 5 days/week. […] Investigators were blinded to the group allocation while assessing experimental outcomes. At the end of the treatment period, tumors were excised, average diameter calculated using calipers, and tumor weight noted. […]
In experiment [10] the test system is DU145 cells. Kind of experiment: MTS cell survival assay, DU145 cells. Type of experiment: cell-based, human. As for the experimental part: as §2
Experiment [11] has as its system DU145 cells. Kind of experiment: Tumorsphere assay, DU145 cells. It counts as cell-based, human. The settings on record: DU145, LY364947 1 μM. As for the experimental part:
(§3) Cell lines: Authenticated LNCaP, DU145, and PC3 cells were procured from ATCC and cultured in RPMI with 10% fetal bovine serum (FBS) with penicillin/streptomycin. Cells overexpressing EMT transcription factors and shRNA were also cultured in the same media. HEK293T cells were cultured in DMEM with 10% FBS and penicillin/streptomycin. All cell lines used for this study were recently confirmed negative for mycoplasma contamination.
as §2

Experiment [12] deals with DU145 cells. In words: Morphology and marker expression (qRTPCR, immunoblotting, IF) in DU145 cells. Type of experiment: cell-based, human. The settings on record: DU145, LY364947 1 μM. As for the experimental part:
as §3, §2

Experiment [13] has as its system MSCs.
Method: MSCs were supplemented with 10% serum, and the treatment was continued for 30 minutes. Protein lysates from MSCs treated under the indicated conditions were subjected to immunoblot analysis. α-tubulin was used as a loading control. […] Data are shown as means±standard error of the mean.
MSCs were subjected to lysis in the extraction buffer (Tris-HCl [pH 7.5, 50 mM]; sodium chloride [50 mM]; dithiothreitol [1 mM]; ethylenediaminetetraacetic acid [2 mM]; 1% NP-40; 0.1% sodium deoxycholate; and 0.1% sodium dodecyl sulfate) supplemented with protease and phosphatase inhibitors (Roche, Basel, Switzerland). Protein concentration in the lysates was measured by a protein assay reagent (Bio-Rad Laboratories, Hercules, Calif.). […] The blots were then incubated with anti-rabbit secondary antibodies conjugated with horseradish peroxidase (1:3000 dilution in PBS with 0.2% Tween 20 and 1% nonfat milk powder; Sigma-Aldrich, St. Louis, Mo.), and bands were detected with a chemiluminescence detection system (Pierce Biotechnology, Rockford, Ill.).
[14] abbreviates: imatinib 5 μM + compound 6.6 μM (dexamethasone 50 nM), 3 days pretreatment + 1 day.

With `C[C@@H](N)[C@H]1CC[C@H](C(=O)Nc2ccncc2)CC1` [Y-27632], in [1] (setting [14]), the “Imatinib-induced leukemic cell cluster formation” value is given as “directly prevented imatinib-induced leukemic cell cluster formation”.
Take `CNC(=O)c1ccc(C)c(-n2c(C)cc(OCc3ccc(F)cc3F)c(Br)c2=O)c1` [PH797804]: the IC50 in experiment [2] was found to be 10 nM; in experiment [3], 50 nM; in [4] it was 100 nM; in [5], 300 nM.
With `Cc1ccc([N+](=O)[O-])cc1S(=O)(=O)N(C)/N=C/c1cnc2ccc(Br)cn12` [PIK75], in experiment [1] (setting [14]), the “Imatinib-induced leukemic cell cluster formation” value is given as “eliminated the leukemic cell clusters by eliciting toxicity toward clustered leukemic cells”.
`COc1cc2c(cc1OC)[C@@H]1C(=O)c3ccc4c(c3O[C@@H]1CO2)C=CC(C)(C)O4` [DEGUELIN]: in experiment [1] (setting [14]), the “Imatinib-induced leukemic cell cluster formation” value is listed as “directly prevented imatinib-induced leukemic cell cluster formation”.
For `CC(C)C[C@@H](C=O)NC(=O)[C@H](CC(C)C)NC(=O)[C@H](CC(C)C)NC(=O)OCc1ccccc1` [MG132] (Cbz-Leu-Leu-Leu-aldehyde), in experiment [6], the “Proteolytic degradation of FOXC2 following SB203580 treatment” value is on record as “rescued the proteolytic degradation of FOXC2”.
Regarding `CNCc1ccc(-c2[nH]c3cc(F)cc4c3c2CCNC4=O)cc1` [AG014699], the “Imatinib-induced leukemic cell cluster formation” value in experiment [1] (setting [14]) was “eliminated the leukemic cell clusters by eliciting toxicity toward clustered leukemic cells”.
For `CNC(=O)c1ccc(N2C(=S)N(c3ccc(C#N)c(C(F)(F)F)c3)C(=O)C2(C)C)cc1F` [Enzalutamide], in experiment [7], the “Resistance of cells to the drug (cell survival)” value is “increasingly resistant”. Also, the “Sensitivity of cells to the drug” value in [8] was “insensitive”. For the same compound, the “Tumor size (volume and weight)” value in experiment [9] is “no appreciable change in tumor size”. Further, the “Sensitivity of cells to the drug (cell survival)” value in experiment [10] (DU145 with FOXC2 suppression, 100 nM Enzalutamide) was “more sensitive”.
In the case of `c1ccc(-c2[nH]ncc2-c2ccnc3ccccc23)nc1` [LY364947], the Tumorsphere-forming capacity entry in experiment [11] is reported as “markedly reduced tumorsphere-forming capacity”. Moreover, the “FOXC2 expression and p38 signaling” value in experiment [12] is “concomitant loss in FOXC2 expression and p38 signaling”.
On to `Oc1ccc(-c2nc(-c3ccc(F)cc3)c(-c3ccncc3)[nH]2)cc1` [SB202190, 4-(4-fluorophenyl)-2-(4-hydroxyphenyl)-5-(4-pyridyl)-1H-imidazole], for which the “Imatinib-induced leukemic cell cluster formation” value in [1] (setting [14]) is recorded as “directly prevented imatinib-induced leukemic cell cluster formation”.
As to `O=C(c1cc(Cc2n[nH]c(=O)c3ccccc23)ccc1F)N1CCN(C(=O)C2CC2)CC1` [AZD2281], the “Imatinib-induced leukemic cell cluster formation” value in experiment [1] (setting [14]) is “eliminated the leukemic cell clusters by eliciting toxicity toward clustered leukemic cells”.
Turning to `NC(=O)c1ccc(N(C(N)=O)c2c(F)cccc2F)nc1-c1ccc(F)cc1F` [VX-702], the IC50 in [2] and in experiment [4] was 50000 nM throughout. For the same compound, the “Imatinib-induced leukemic cell cluster formation” value in experiment [1] (setting [14]) is on record as “directly prevented imatinib-induced leukemic cell cluster formation”. Besides, in experiment [5], the “Inhibition of sphere formation” value is given as “did not inhibit sphere formation”.
With `CC(C)(C)Cn1c(N)nc2ccc(-c3[nH]c(C(C)(C)C)nc3-c3ccc(F)cc3)nc21` [LY2228820], the IC50 in [2] stood at 10 nM; in experiment [4], 300 nM; in experiment [5], 3000 nM.
Take `CN1CCN(c2ccc3nc(-c4c(N)c5c(F)cccc5[nH]c4=O)[nH]c3c2)CC1` [CHIR258]: the “Imatinib-induced leukemic cell cluster formation” value in [1] is on record as “eliminated the leukemic cell clusters by eliciting toxicity toward clustered leukemic cells”.
On to `Cc1c[nH]c(-c2cnc(NCCNc3ccc(C#N)cn3)nc2-c2ccc(Cl)cc2Cl)n1` [CHIR99021], for which the “Imatinib-induced leukemic cell cluster formation” value in experiment [1] (setting [14]) is “directly prevented imatinib-induced leukemic cell cluster formation”.
Take `O=C1NC(=O)c2c1c1c3ccccc3n3c1c1c2c2ccccc2n1C1CCC3O1` [SB218078]: in experiment [1] (setting [14]), the “Imatinib-induced leukemic cell cluster formation” value is listed as “directly prevented imatinib-induced leukemic cell cluster formation”.
For the compound `CC(=O)O[C@@]12CO[C@@H]1C[C@H](O)[C@@]1(C)C(=O)[C@H](O)C3=C(C)[C@@H](OC(=O)[C@H](O)[C@@H](NC(=O)OC(C)(C)C)c4ccccc4)C[C@@](O)([C@@H](OC(=O)c4ccccc4)[C@H]21)C3(C)C` [Docetaxel], the “Resistance of cells to the drug (cell survival)” value in experiment [7] is given as “increasingly resistant”. Moreover, in experiment [10] (DU145 with loss of FOXC2 expression, 100 nM Docetaxel), the “Susceptibility of cells to the drug (cell survival)” value is reported as “more susceptible”.
Take `Cc1ccc(NC(=O)c2ccc(CN3CCN(C)CC3)cc2)cc1Nc1nccc(-c2cccnc2)n1` [imatinib]: the “Phosphorylation of PDGFR-α/β” value in [13] is “reduced phosphorylation of PDGFR-α/β”. The “Phosphorylation of ATF2” value in experiment [13] (vs control) is “higher phosphorylation of ATF2 than control”.
